Experimental data taken from article PMC11637483, “Dissecting caspase-2-mediated cell death: from intrinsic PIDDosome activation to chemical modulation” (Protein & Cell, 2024).
Entries after “also recorded” stand apart in the source; their conditions may differ.

Legend:
[1] = molecular target: T1, MBP-CASP2(32-165)-L150P/Y151H (Homo sapiens, UniProt P42575, L150P/Y151H); assay: MicroScale Thermophoresis binding to L150P/Y151H mutant pro-domain; details: MST, L150P/Y151H double mutant
T1 construct: cDNAs encoding BID and caspase-2 pro-domain (residues 32–165) were constructed into modified pET vectors; made in house; host or cells: E. coli BL21 (DE3)
T1 sequence (P42575 32-165 L150P/Y151H): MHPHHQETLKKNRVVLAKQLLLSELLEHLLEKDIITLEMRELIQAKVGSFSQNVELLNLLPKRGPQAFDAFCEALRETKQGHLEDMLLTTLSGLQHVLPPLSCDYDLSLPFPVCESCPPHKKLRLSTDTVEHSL
From the text: The contrasting responses of the two caspases to HUHS015 might result from sequence differences in the interdomain linker in the pro-domain. […] However, replacing L150 and Y151 in human caspase-2 with mouse P150 and H151, respectively, abolished HUHS015-induced caspase-2 activation as well as the cell death response (Fig. 4D). […] The importance of L150/Y151 for human caspase-2 activation by HUHS015 indicates these residues or the associated structure are likely involved in binding to the compound agonist.
MicroScale thermophoresis (MST) experiments were carried out at 25°C in the PBST Buffer (PBS with 0.05%, v/v Tween 20) by using a Monolith 2020 (TNG) (MM-208). […] The temperature-induced changes in fluorescence intensity of each sample in the capillary thermophoresis tubes were recorded by the Monolith instrument. The data were analyzed using the program provided by the manufacturer. The binding constant (KD) was calculated directly from the fitting.
Relative fluorescence (%) […]
(A) HUHS015-36 activates caspase-2 independently of PIDDosome. […] A TP-based cell viability is expressed as mean±s.d. from three technical replicates.
Immunoblotting detecting caspase-2 and BID processing is shown. […] A TP-based cell viability is expressed as mean±s.d. from three technical replicates. […]

EL4 cells = assay: Cell death and caspase-2 processing in EL4 cells; format: cell-based, mouse; details: EL4, 8 h
From the text: We further examined whether HUHS015-derived compounds could activate endogenous caspase-2 in human cells. […] Complementing the CASP2^−/− Jurkat cells with exogenous caspase-2 restored HUHS015-36-induced apoptosis, in which caspase-2 was expectedly processed (Fig. 5A and 5B). We also profiled caspase-2 expression in a panel of 10 mouse tumor cell lines and observed highly variable expression levels (Fig. 5C). […] In B16-F10 (melanoma), LLC1 (Lewis lung carcinoma), MB49 (bladder carcinoma), KPC (pancreatic ductal adenocarcinoma), and 4T1 (mammary carcinoma) cells, caspase-2 was expressed at much lower levels (Fig. 5C). In contrast, EMT6 (mammary carcinoma), EL4 (T lymphoblast), and Hepa1-6 (hepatoma) feature robust caspase-2 expression, much higher than in Jurkat cells (Fig. 5C).
Figure 5. HUHS015-36 activates endogenous caspase-2 to induce apoptosis in Jurkat cells but not mouse cells. (A and B) HUHS015-36 activates endogenous caspase-2 and induces apoptosis in human Jurkat cells. […] Lysates of 10 mouse cancer cell lines were analyzed by immunoblotting using indicated antibodies. […] ATP cell viability (A and D) is expressed as mean ± s.d. from three technical replicates. […]
Cell viability was measured by the ATP assay using the CellTiter-Glo® Luminescent Cell Viability Assay kit (Promega).

Question: `Cc1cccc2nc(-n3nc4c(c3O)CCCC4)[nH]c12` [HUHS015-36] was tested. Which KD [1] did it give?
Answer: Not detected; also recorded: failed to detect confident binding

Question: And the “caspase-2 processing and cell death” value (EL4 cells)?
Answer: no caspase-2 processing and cell death were detected
